The numbers were not newly measured in patent US6887842B1, “Modulating a pharmacokinetic property of a drug by administering a bifunctional molecule containing the drug” (The Board of Trustees of the Leland Stanford Junior …, priority 1999, dated 2005), which cites them from elsewhere.

For data set [1] the following is noted: in vivo.
For data set [2] the following is noted: in vivo. The source holds these as a separate data set.
Another data set concerns the target albumin (Homo sapiens, UniProt P02768).
For data set [3] the following is noted: in vivo. This is another data set of the same source.

Where two headings read alike, the source gives them in different places.

Sequence of albumin (P02768 25-609, species assumed): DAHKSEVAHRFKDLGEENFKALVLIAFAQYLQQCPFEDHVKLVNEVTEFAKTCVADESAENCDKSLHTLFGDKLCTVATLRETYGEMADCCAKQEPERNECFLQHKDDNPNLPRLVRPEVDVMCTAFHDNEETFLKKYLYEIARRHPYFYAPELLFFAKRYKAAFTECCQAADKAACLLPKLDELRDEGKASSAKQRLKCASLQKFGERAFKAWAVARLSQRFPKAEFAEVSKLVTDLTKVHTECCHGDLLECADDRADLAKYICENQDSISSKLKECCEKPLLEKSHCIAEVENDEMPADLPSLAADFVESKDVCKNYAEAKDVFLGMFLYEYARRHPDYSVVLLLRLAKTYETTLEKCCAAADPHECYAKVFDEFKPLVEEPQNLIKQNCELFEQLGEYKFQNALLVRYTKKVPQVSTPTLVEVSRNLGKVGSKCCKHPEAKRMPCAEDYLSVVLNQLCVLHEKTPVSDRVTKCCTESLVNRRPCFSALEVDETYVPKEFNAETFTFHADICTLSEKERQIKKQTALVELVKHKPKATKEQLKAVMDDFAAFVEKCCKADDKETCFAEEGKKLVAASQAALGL

On to `CC[C@H](C)C(=O)O[C@H]1C[C@@H](C)C=C2C=C[C@H](C)[C@H](CC[C@@H]3C[C@@H](O)CC(=O)O3)[C@H]21` [lovastatin], for which, in data set [1], the hepatic first-pass clearance result is “extensive hepatic first-pass clearance”. `C=CCN1CC[C@]23c4c5ccc(O)c4O[C@H]2C(=O)CC[C@@]3(O)[C@H]1C5` [naloxone]: in data set [1], the hepatic first-pass clearance result is listed as “extensive hepatic first-pass clearance”.

For `Sc1ncnc2nc[nH]c12` [mercaptopurine], the hepatic first-pass clearance result in data set [1] was “extensive hepatic first-pass clearance”. Usually half-life stands for the time needed for the level to fall by half in the phase considered. In the case of `CO[C@H]1C[C@@H]2CC[C@@H](C)[C@@](O)(O2)C(=O)C(=O)N2CCCC[C@H]2C(=O)O[C@H]([C@H](C)C[C@@H]2CC[C@@H](O)[C@H](OC)C2)CC(=O)[C@H](C)/C=C(\C)[C@@H](O)[C@@H](OC)C(=O)[C@H](C)C[C@H](C)/C=C/C=C/C=C/1C` [rapamycin], the half-life in data set [2] was 60 h. For the compound `CC[C@H](C)C(=O)O[C@H]1C[C@H](O)C=C2C=C[C@H](C)[C@H](CC[C@@H](O)C[C@@H](O)CC(=O)O)[C@H]21` [pravastatin], in data set [1], the hepatic first-pass clearance result is on record as “extensive hepatic first-pass clearance”. As for FK506, the half-life in data set [2] is 30 h. With `COc1ccc2cc([C@H](C)C(=O)O)ccc2c1` [naproxen], the “degree of binding to albumin” value at albumin (plasma) was “extensive binding to albumin”. Regarding `Cc1ccc2nc(N)[nH]c(=O)c2c1Sc1ccncc1` [AG 337], in data set [2], the half-life was 2 to 3 h. As for `COc1ccc([C@@H]2Sc3ccccc3N(CCN(C)C)C(=O)[C@@H]2OC(C)=O)cc1` [diltiazem], in data set [1], the hepatic first-pass clearance entry is listed as “extensive hepatic first-pass clearance”.

For the compound `Cc1noc(NS(=O)(=O)c2ccc(N)cc2)c1C` [Sulfisoxazole], the “distribution (extracellular space)” value in data set [3] is “found almost exclusively in the extracellular space”. In addition, the “degree of binding to albumin” value on albumin is “extensively bound to albumin”. In the case of `CN(C)CCCN1c2ccccc2Sc2ccc(Cl)cc21` [chlorpromazine], at albumin (plasma), the “degree of binding to albumin” value is on record as “extensively bound to albumin”.
